This is an account of results in US8778966B2, “Quinolinone derivatives as PARP and tank inhibitors” (Janssen Pharmaceutica, NV, priority 2007, dated 2014).

The target of the assay is T1, Human PARP-1 enzyme (Homo sapiens, UniProt P09874).
T1 construct: purchased Trevigen
Kind of assay: In vitro Scintillation Proximity Assay (SPA) for PARP-1 inhibitory activity. It is filed as biochemical. As to conditions: for IC50: read-out: in vitro SPA assay PARP-1 pIC50 (converted). The method in brief:
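SPA assay: nicked-DNA-activated PARP-1 (0.1–0.2 μg/ml) ADP-ribosylates biotinylated histones (2 μg/ml) using [3H]-NAD+, 20 min at RT in Tris pH 8/DTT/MgCl2, stopped with 2 mM NAD+. Blank-subtracted cpm expressed as % control; IC50 by linear interpolation, reported as pIC50 (10−5 to 3×10−9 M tested).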
Background: Scintillation proximity formats need no separation of bound from free tracer.

T1 sequence (P09874 whole entry): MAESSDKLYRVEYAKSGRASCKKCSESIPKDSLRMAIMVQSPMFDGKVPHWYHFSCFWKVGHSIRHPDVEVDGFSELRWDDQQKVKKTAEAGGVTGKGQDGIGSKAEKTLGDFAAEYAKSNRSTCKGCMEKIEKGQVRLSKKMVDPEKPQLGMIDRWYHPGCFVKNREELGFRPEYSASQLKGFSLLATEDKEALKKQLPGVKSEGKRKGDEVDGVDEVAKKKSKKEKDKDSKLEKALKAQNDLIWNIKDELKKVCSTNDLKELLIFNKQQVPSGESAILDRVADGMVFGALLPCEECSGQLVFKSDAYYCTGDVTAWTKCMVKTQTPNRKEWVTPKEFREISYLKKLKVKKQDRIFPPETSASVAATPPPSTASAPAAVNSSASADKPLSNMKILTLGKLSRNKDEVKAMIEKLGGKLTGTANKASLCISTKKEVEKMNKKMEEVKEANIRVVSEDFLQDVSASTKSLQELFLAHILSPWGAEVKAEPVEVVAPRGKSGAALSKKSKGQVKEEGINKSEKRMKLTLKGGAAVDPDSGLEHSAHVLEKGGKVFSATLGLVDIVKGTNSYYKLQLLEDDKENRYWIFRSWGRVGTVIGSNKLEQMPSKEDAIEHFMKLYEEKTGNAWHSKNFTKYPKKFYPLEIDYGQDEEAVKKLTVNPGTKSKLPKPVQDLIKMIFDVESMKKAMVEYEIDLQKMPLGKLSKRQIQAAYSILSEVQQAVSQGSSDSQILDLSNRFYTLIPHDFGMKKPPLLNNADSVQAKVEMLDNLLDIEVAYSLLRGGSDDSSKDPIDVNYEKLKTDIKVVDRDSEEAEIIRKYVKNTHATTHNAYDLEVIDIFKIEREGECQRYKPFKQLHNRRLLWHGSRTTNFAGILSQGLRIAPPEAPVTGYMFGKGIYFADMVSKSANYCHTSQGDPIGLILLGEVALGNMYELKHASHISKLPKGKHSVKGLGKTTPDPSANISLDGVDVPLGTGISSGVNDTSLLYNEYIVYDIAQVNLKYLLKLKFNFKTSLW

As for `CCc1cc2ccc(C(C)(C#N)Cc3cccc(Cl)c3)cc2[nH]c1=O` (stereo not shown) [Compound 140], the IC50 was 631 nM.

On to `CCc1cc2ccc(C(C)(C#N)CC3COc4ccccc4O3)cc2[nH]c1=O` (single isomer, unassigned) [Compound 48], for which the “in vitro SPA assay PARP-1 pIC50” value worked out at 6.4.

As for `CCc1cc2ccc([C@@](C)(C#N)C[C@@H]3CCc4cc(C)ccc4O3)cc2[nH]c1=O` [Compound 252], the IC50 was 200 nM.

In the case of `CCc1cc2ccc(C(C)(C#N)CCOc3cccc(Cl)c3)cc2[nH]c1=O` (stereo not shown) [Compound 151], the IC50 is 501 nM.

With `CCc1cc2ccc(C(C)(C#N)Cc3cccc(C)c3F)cc2[nH]c1=O` (stereo not shown) [Compound 132], the IC50 was 1260 nM.

With `CCc1cc2ccc(C(C)(C#N)Cc3ccc(F)cc3F)cc2[nH]c1=O` (stereo not shown) [Compound 137], the IC50 was 1260 nM.

Turning to `CCc1cc2ccc(C(C)(C#N)Cc3cccc(N)c3)cc2[nH]c1=O` (stereo not shown) [Compound 15], the IC50 is 316 nM.

Take `CCc1cc2ccc(C(C)(C#N)Cc3cccc(F)c3F)cc2[nH]c1=O` (stereo not shown) [Compound 120]: the IC50 was 631 nM.

As to `CCc1cc2ccc(C(C)(C#N)CCOc3ccc(Cl)cc3Cl)cc2[nH]c1=O` (stereo not shown) [Compound 154], the IC50 is 1260 nM.

For `CCc1cc2ccc(C(C)(C#N)CCOc3ccccc3)cc2[nH]c1=O` (stereo not shown) [Compound 145], the IC50 was 200 nM.

For the molecule `CCc1cc2ccc(C(C)(C#N)CCOc3ccc(C(C)(C)C)cc3)cc2[nH]c1=O` (stereo not shown) [Compound 167], the IC50 was 1580 nM.

Regarding `CCc1cc2ccc(C(C)(C#N)Cc3c(F)cccc3F)cc2[nH]c1=O` (stereo not shown) [Compound 138], the IC50 was 1260 nM.

As for `CCc1cc2ccc(C(C)(C#N)CCOc3ccc(SC)cc3)cc2[nH]c1=O` (stereo not shown) [Compound 155], the IC50 was 501 nM.

As for `CCc1cc2ccc(C(C)(C#N)CCOc3ccc(Cl)cc3)cc2[nH]c1=O` (stereo not shown) [Compound 146], the IC50 was 398 nM.

For `CCc1cc2ccc(C(C)(C#N)Cc3ccc4c(c3)nnn4C)cc2[nH]c1=O` (stereo not shown) [Compound 123], the IC50 is 158 nM.

Consider `CCc1cc2ccc(C(C)(C#N)Cc3ccc(OC(F)(F)F)cc3)cc2[nH]c1=O` (stereo not shown) [Compound 114], for which the IC50 was 1000 nM.

With `CCc1cc2ccc(C(C)(C#N)CCOc3ccccc3Cl)cc2[nH]c1=O` (stereo not shown) [Compound 152], the IC50 is 398 nM.

As for `CCc1cc2ccc(C(C)(C#N)Cc3cc(Cl)cc(Cl)c3)cc2[nH]c1=O` (stereo not shown) [Compound 141], the IC50 was 1000 nM.

`CCc1cc2ccc(C(C)(C#N)Cc3cccc(C(=O)OC)c3)cc2[nH]c1=O` (stereo not shown) [Compound 12]: the IC50 was 501 nM.

Turning to `CCc1cc2ccc(C(C)(C#N)Cc3ccc(C)cc3)cc2[nH]c1=O` (stereo not shown) [Compound 117], the IC50 is 398 nM.

Regarding `CCc1cc2ccc(C(C)(C#N)Cc3cccc(C(=O)NC)c3)cc2[nH]c1=O` (stereo not shown) [Compound 13], the IC50 was 398 nM.

Regarding `Cc1cc2ccc([C@@](C)(C#N)CCOc3ccccc3)cc2[nH]c1=O` (single isomer, unassigned) [Compound 164], the IC50 was 1580 nM.

With `CCc1cc2ccc(C(C#N)(CC)CCOc3ccc(C#N)cc3)cc2[nH]c1=O` (stereo not shown) [Compound 271], the IC50 was 100 nM.

For `CCc1cc2ccc(C(C)(C#N)CCOc3ccc(C#N)cc3)cc2[nH]c1=O` (stereo not shown) [Compound 161], the IC50 is 251 nM.

On to `CCc1cc2ccc(C(C)(C#N)Cc3c(Cl)cccc3Cl)cc2[nH]c1=O` (stereo not shown) [Compound 135], for which the IC50 is 1000 nM.
